Measured values published in ChEMBL document CHEMBL1201862, “PubChem BioAssay data set” (2004).
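Cells were grown in 96-well plates and exposed to each compound for 48 hours at five concentrations; endpoints were interpolated linearly between bracketing concentrations, or set to the highest concentration if not reached. The concentration for 50% growth inhibition is given as GI50.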 Calls of active or inactive are those of the source. No stated cut-off is given here; in the data, active = GI50 up to about 1.1 µM and inactive = higher.

Tests used:
Assay in all cases: NCI anticancer screen, dose series, 48 h
[1] = tested on: SK-MEL-28
[2] = tested on: SW-620
[3] = tested on: RXF 393
[4] = tested on: CCRF-CEM
[5] = tested on: RPMI-8226
[6] = tested on: EKVX
[7] = tested on: KM12
[8] = tested on: UACC-62
[9] = tested on: 786-0
[10] = tested on: NCI-H460
[11] = tested on: NCI-H522
[12] = tested on: COLO 205
[13] = tested on: HOP-62
[14] = tested on: SF-295
[15] = tested on: OVCAR-4
[16] = tested on: OVCAR-5
[17] = tested on: Malme-3M

Row | SMILES | GI50 [1] | GI50 [2] | GI50 [3] | GI50 [4] | GI50 [5] | GI50 [6] | GI50 [7] | GI50 [8] | GI50 [9] | GI50 [10] | GI50 [11] | GI50 [12] | GI50 [13] | GI50 [14] | GI50 [15] | GI50 [16] | GI50 [17]
1 | O=C(CCCCCCCCCCc1ccccc1)C1=C(O)CCCC1=O | 40.4 µM (inactive) | 37.8 µM (inactive) | 25.1 µM (inactive) | 16.8 µM (inactive) | 29 µM (inactive) | 41.3 µM (inactive) | 30.9 µM (inactive) | 25.5 µM (inactive) | 31.7 µM (inactive) | 18.9 µM (inactive) | 27 µM (inactive) | 17.6 µM (inactive) | 43.7 µM (inactive) | 22.8 µM (inactive) | 32.7 µM (inactive) | 33.3 µM (inactive) | –
2 | CC1=NN(C(=O)c2ccc([N+](=O)[O-])cc2)C(=O)C1/N=N/c1ccccc1C(=O)O (stereo not drawn) | > 100 µM (inactive) | > 100 µM (inactive) | > 100 µM (inactive) | 75 µM (inactive) | > 100 µM (inactive) | > 100 µM (inactive) | > 100 µM (inactive) | 45 µM (inactive) | > 100 µM (inactive) | > 100 µM (inactive) | 79.4 µM (inactive) | > 100 µM (inactive) | – | > 100 µM (inactive) | – | > 100 µM (inactive) | > 100 µM (inactive)
3 | Cc1nc(-n2nc(-c3ccccc3)cc2-c2ccccc2)sc1C(/C=C/c1ccc([N+](=O)[O-])cc1)=N/NC(N)=S | 91.8 µM (inactive) | > 10 µM (inactive) | 54.1 µM (inactive) | 22.2 µM (inactive) | 11.9 µM (inactive) | > 100 µM (inactive) | 21.7 µM (inactive) | 54.8 µM (inactive) | 18.2 µM (inactive) | 60.3 µM (inactive) | – | 33.2 µM (inactive) | 14 µM (inactive) | 45.8 µM (inactive) | – | 83.6 µM (inactive) | > 100 µM (inactive)
4 | CN(/N=C\c1ccnc2ccccc12)c1ccc([N+](=O)[O-])cc1 | > 100 µM (inactive) | 65 µM (inactive) | > 10 µM (inactive) | 19.5 µM (inactive) | 8.26 µM (inactive) | > 100 µM (inactive) | 16 µM (inactive) | 84.7 µM (inactive) | > 100 µM (inactive) | 5.73 µM (inactive) | – | > 100 µM (inactive) | > 100 µM (inactive) | 75.2 µM (inactive) | – | > 100 µM (inactive) | > 100 µM (inactive)
5 | O=C(CC(=O)N1N=C(c2ccccc2)C(/N=N/c2ccc(C(=O)O)cc2)C1=O)Nc1ccc(F)cc1 (stereo not drawn) | 38.3 µM (inactive) | 59.3 µM (inactive) | 4.01 µM (inactive) | – | 27.5 µM (inactive) | 30.1 µM (inactive) | – | 20.5 µM (inactive) | 21.2 µM (inactive) | 28.7 µM (inactive) | 10.4 µM (inactive) | 43.8 µM (inactive) | – | 36.9 µM (inactive) | 52 µM (inactive) | 52.1 µM (inactive) | 60.7 µM (inactive)
6 | Cc1cc(-c2ccccc2)nc(Nc2cc3ccccc3[nH]2)n1 | > 100 µM (inactive) | > 100 µM (inactive) | – | > 100 µM (inactive) | > 100 µM (inactive) | 89.3 µM (inactive) | > 100 µM (inactive) | > 100 µM (inactive) | > 100 µM (inactive) | > 100 µM (inactive) | > 100 µM (inactive) | > 100 µM (inactive) | > 100 µM (inactive) | > 100 µM (inactive) | > 100 µM (inactive) | > 100 µM (inactive) | > 100 µM (inactive)
7 | O=C(CCCC(=O)Nc1ccc(Cl)cc1Cl)CC(=O)c1ccc2ccccc2c1 | > 100 µM (inactive) | > 100 µM (inactive) | 10.8 µM (inactive) | > 100 µM (inactive) | – | > 100 µM (inactive) | > 100 µM (inactive) | > 100 µM (inactive) | > 100 µM (inactive) | > 100 µM (inactive) | – | > 100 µM (inactive) | > 100 µM (inactive) | > 100 µM (inactive) | > 100 µM (inactive) | > 100 µM (inactive) | > 100 µM (inactive)
8 | CCC(C)CN1C(=O)NC(C)(Cc2ccccc2)C1=O (stereo not drawn) | > 100 µM (inactive) | > 100 µM (inactive) | > 100 µM (inactive) | – | – | > 100 µM (inactive) | > 100 µM (inactive) | – | > 100 µM (inactive) | > 100 µM (inactive) | > 100 µM (inactive) | > 100 µM (inactive) | > 100 µM (inactive) | > 100 µM (inactive) | – | > 100 µM (inactive) | > 100 µM (inactive)
9 | Cc1cccc(C(C)(C)C)c1NC(=O)CC1C(=O)Nc2ccccc2[S+]1[O-] (stereo not drawn) | 41.5 µM (inactive) | 36.7 µM (inactive) | – | – | 34.3 µM (inactive) | – | 73.6 µM (inactive) | – | > 100 µM (inactive) | 54.1 µM (inactive) | 39.4 µM (inactive) | 21.1 µM (inactive) | > 100 µM (inactive) | 62.8 µM (inactive) | 18.5 µM (inactive) | > 100 µM (inactive) | 54 µM (inactive)
10 | N=C(c1ccccc1)N(O)C1CCCCC1 | > 100 µM (inactive) | > 100 µM (inactive) | > 100 µM (inactive) | – | – | > 100 µM (inactive) | > 100 µM (inactive) | – | > 100 µM (inactive) | > 100 µM (inactive) | > 100 µM (inactive) | > 100 µM (inactive) | > 100 µM (inactive) | > 100 µM (inactive) | > 100 µM (inactive) | > 100 µM (inactive) | 9.38 µM (inactive)
11 | Nc1ccccc1/C(O)=C1/CCOC1=O | > 100 µM (inactive) | > 100 µM (inactive) | – | > 100 µM (inactive) | > 100 µM (inactive) | > 100 µM (inactive) | > 100 µM (inactive) | > 100 µM (inactive) | > 100 µM (inactive) | > 100 µM (inactive) | > 100 µM (inactive) | > 100 µM (inactive) | > 100 µM (inactive) | > 100 µM (inactive) | > 100 µM (inactive) | > 100 µM (inactive) | > 100 µM (inactive)
12 | O=C(CC1(O)C(=O)Nc2ccccc21)c1ccc(O)cc1 (stereo not drawn) | > 100 µM (inactive) | > 100 µM (inactive) | > 100 µM (inactive) | > 100 µM (inactive) | > 100 µM (inactive) | > 100 µM (inactive) | > 100 µM (inactive) | > 100 µM (inactive) | > 100 µM (inactive) | > 100 µM (inactive) | – | > 100 µM (inactive) | > 100 µM (inactive) | > 100 µM (inactive) | > 100 µM (inactive) | > 100 µM (inactive) | > 100 µM (inactive)
13 | C/C=C1/CCC2c3[nH]c4ccccc4c3CCN2C1 (stereo not drawn) | > 100 µM (inactive) | > 100 µM (inactive) | > 100 µM (inactive) | > 100 µM (inactive) | – | > 100 µM (inactive) | > 100 µM (inactive) | 60.8 µM (inactive) | > 100 µM (inactive) | > 100 µM (inactive) | > 100 µM (inactive) | – | > 100 µM (inactive) | > 100 µM (inactive) | 42 µM (inactive) | > 100 µM (inactive) | 0.256 µM (active)
